# Experimental data from publication PMC9879287 (Current research in chemical biology, 2022).
# Experiments:
# [1] = molecular target: IKZF3 (Homo sapiens, UniProt Q96SW2+Q9UKT9); test: Western blotting for IKZF3 in Mino cells; format: cell-based; conditions: at 40 nM; assay not given
# [2] = molecular target: IKZF1 (Homo sapiens, UniProt Q13422+Q96SW2); test: Western blotting for IKZF1 in Mino cells; format: cell-based; conditions: at 200 nM; assay not given
# [3] = molecular target: T1, IKZF3-nLuc (Homo sapiens, UniProt Q96SW2+Q9UKT9); format: cell-based
# T1 sequence (Q9UKT9 whole entry): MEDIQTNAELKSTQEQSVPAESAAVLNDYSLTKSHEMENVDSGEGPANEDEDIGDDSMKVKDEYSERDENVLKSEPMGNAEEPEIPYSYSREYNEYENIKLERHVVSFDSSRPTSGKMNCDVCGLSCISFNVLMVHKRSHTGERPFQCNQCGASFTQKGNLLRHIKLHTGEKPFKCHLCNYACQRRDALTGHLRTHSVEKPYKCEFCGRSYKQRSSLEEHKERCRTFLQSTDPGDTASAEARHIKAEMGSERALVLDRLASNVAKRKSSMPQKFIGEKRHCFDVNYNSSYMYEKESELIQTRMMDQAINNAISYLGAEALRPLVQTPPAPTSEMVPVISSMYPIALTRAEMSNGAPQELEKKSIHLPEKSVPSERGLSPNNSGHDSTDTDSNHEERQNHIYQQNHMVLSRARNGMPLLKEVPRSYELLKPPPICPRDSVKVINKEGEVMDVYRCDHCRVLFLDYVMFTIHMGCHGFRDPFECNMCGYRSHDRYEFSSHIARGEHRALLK
# T1 sequence (Q96SW2 whole entry): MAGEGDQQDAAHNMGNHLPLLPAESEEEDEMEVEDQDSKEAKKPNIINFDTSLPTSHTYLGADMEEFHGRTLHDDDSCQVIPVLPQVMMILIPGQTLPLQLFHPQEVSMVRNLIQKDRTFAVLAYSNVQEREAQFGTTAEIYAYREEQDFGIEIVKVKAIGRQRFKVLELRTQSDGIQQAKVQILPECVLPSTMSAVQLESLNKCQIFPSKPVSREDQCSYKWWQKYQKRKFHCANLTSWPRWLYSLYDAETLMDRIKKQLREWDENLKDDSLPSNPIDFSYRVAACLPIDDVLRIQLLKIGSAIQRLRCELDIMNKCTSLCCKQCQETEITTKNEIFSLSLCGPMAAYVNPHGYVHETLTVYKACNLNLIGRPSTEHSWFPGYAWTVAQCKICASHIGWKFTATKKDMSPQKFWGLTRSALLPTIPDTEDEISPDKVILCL
# T1 sequence (Q16531 whole entry partner): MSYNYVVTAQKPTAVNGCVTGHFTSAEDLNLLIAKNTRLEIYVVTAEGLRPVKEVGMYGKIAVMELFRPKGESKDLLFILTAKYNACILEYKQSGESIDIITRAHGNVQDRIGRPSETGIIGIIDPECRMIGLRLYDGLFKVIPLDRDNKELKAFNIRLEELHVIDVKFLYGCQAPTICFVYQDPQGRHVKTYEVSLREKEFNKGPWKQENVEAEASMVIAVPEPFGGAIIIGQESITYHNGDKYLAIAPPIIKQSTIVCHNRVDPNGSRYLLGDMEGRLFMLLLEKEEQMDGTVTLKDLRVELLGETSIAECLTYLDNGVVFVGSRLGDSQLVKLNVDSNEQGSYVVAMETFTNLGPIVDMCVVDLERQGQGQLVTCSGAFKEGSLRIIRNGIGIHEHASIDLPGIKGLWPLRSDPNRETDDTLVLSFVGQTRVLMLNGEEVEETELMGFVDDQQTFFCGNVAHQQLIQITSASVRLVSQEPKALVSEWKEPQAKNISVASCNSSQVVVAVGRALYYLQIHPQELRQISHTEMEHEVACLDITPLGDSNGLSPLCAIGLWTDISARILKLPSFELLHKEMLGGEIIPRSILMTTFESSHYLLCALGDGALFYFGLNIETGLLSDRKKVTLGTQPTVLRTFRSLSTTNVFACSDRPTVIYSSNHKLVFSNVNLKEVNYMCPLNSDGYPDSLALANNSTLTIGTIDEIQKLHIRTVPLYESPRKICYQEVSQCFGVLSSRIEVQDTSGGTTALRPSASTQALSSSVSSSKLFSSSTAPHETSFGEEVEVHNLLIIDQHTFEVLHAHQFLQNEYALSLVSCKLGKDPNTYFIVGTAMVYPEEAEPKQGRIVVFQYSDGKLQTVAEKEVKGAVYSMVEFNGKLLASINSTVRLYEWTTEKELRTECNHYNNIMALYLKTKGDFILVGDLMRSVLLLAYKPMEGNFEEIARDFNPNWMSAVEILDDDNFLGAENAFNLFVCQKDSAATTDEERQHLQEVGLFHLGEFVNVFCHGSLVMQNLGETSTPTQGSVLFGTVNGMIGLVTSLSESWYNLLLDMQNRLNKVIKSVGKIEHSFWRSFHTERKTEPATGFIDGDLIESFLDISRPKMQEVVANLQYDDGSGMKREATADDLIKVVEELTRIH
# [4] = molecular target: BTK (Homo sapiens, UniProt Q06187); test: Western blotting for BTK in Mino cells; format: cell-based; conditions: 24 h; for BTK degradation in Mino cells: Western blotting
# Sequence of BTK (Q06187 whole entry): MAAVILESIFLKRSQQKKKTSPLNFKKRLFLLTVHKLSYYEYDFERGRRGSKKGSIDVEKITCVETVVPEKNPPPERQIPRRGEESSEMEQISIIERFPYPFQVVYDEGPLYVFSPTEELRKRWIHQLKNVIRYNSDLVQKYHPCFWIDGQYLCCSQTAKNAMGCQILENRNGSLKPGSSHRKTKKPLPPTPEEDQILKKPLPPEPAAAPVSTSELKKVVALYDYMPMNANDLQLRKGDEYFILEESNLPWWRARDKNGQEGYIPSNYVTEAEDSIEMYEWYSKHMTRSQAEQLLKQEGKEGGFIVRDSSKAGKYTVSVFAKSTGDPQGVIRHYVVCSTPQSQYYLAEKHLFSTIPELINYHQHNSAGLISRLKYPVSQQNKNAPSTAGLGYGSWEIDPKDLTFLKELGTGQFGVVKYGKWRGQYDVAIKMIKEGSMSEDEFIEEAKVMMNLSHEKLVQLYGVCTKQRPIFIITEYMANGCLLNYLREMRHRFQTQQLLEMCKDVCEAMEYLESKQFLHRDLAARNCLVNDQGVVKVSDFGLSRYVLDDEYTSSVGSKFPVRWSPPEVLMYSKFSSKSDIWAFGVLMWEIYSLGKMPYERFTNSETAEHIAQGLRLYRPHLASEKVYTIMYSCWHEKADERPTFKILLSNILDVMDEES
# [5] = system: Rec-R cells; test: Alarma Blue cell viability assay, Rec-R; format: cell-based
# [6] = molecular target: T1, IKZF3-nLuc; conditions: other cell line
# [7] = system: Mino cells; test: cells; format: cell-based; conditions: Homo sapiens, read-out: Mino IC50
# [8] = molecular target: IKZF1-nLuc (Homo sapiens, UniProt Q13422+Q96SW2); conditions: other cell line
# Sequence of IKZF1-nLuc (Q13422 whole entry): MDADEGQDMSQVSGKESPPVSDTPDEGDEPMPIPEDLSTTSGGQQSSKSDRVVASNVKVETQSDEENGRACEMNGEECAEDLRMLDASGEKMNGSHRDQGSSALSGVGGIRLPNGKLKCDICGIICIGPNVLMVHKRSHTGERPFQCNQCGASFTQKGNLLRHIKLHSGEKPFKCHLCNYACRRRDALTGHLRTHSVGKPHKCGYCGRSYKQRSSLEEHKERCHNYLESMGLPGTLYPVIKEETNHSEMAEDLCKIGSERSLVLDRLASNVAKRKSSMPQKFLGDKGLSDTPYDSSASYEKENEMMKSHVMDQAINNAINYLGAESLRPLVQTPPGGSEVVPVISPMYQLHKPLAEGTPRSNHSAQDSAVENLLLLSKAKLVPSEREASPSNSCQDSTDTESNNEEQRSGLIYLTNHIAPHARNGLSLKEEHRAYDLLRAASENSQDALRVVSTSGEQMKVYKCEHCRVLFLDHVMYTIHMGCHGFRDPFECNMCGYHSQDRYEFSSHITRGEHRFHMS
# Sequence of IKZF1-nLuc (Q96SW2 whole entry): as the sequence (Q96SW2 whole entry) above
# Sequence of IKZF1-nLuc (Q16531 whole entry partner): as the sequence (Q16531 whole entry partner) above
# [9] = system: Jeko-1 cells; test: Alarma Blue cell viability assay, Jeko-1; format: cell-based
# [10] = molecular target: His-BTK (Homo sapiens, UniProt Q06187); test: TR-FRET competition binding assay with BTK-BODIPY tracer; conditions: 2 h incubation, 150 nM tracer, 2 nM His-BTK
# Sequence of His-BTK (Q06187 whole entry): as the sequence (Q06187 whole entry) above
# [11] = system: MOLM14 cells; test: Alarma Blue cell viability assay, MOLM14; format: cell-based; conditions: Homo sapiens, MOLM-14, 72 h, read-out: MOLM14 IC50
# [12] = molecular target: BTK-nLuc fusion protein (Homo sapiens, UniProt Q06187+Q96SW2); test: BTK-nLuc endpoint degradation assay; format: cell-based; conditions: HEK-293T cells stably expressing BTK-nLuc, 24 h
# Sequence of BTK-nLuc fusion protein (Q06187 whole entry, the tested form may be a part): as the sequence (Q06187 whole entry) above
# Sequence of BTK-nLuc fusion protein (Q96SW2 whole entry, the tested form may be a part): as the sequence (Q96SW2 whole entry) above
# Sequence of BTK-nLuc fusion protein (Q16531 whole entry partner, the tested form may be a part): as the sequence (Q16531 whole entry partner) above
# Sequence of IKZF1 (Q13422 whole entry): as the sequence (Q13422 whole entry) above
# Sequence of IKZF1 (Q96SW2 whole entry): as the sequence (Q96SW2 whole entry) above
# Sequence of IKZF1 (Q16531 whole entry partner): as the sequence (Q16531 whole entry partner) above
# Sequence of IKZF3 (Q9UKT9 whole entry): as the sequence (Q9UKT9 whole entry) above
# Sequence of IKZF3 (Q96SW2 whole entry): as the sequence (Q96SW2 whole entry) above
# Sequence of IKZF3 (Q16531 whole entry partner): as the sequence (Q16531 whole entry partner) above
compound,measurement,setting,value
Nc1ccc(N2CCN(C(=O)CNc3cccc4c3C(=O)N(C3CCC(=O)NC3=O)C4=O)CC2)cc1 (centres unmarked) [PS-4],IKZF3 degradation,[1],do not degrade IKZF3
same,IKZF1 degradation,[2],substantial IKZF1 degradation
CN1CCN(C(=O)CNc2cccc3c2C(=O)N(C2CCC(=O)NC2=O)C3=O)CC1 (centres unmarked) [PS-5],IKZF3 degradation,[1],do not degrade IKZF3
same,IKZF3 degradation in the nLuc assay,[3],appear to be potent IKZF3 degraders
same,IKZF1 degradation,[2],less potent
O=C1CC[C@H](N2Cc3c(OCc4ccc(CN5CCOCC5)cc4)cccc3C2=O)C(=O)N1 [CC220],BTK degradation in Mino cells,[4],"In contrast to PS-1, PS-3 and CC-220, PS-2 potently induces BTK degradation"
"Nc1cccc2c1C(=O)N(C1CCC(=O)NC1=O)C2=O (centres unmarked) [Pomalidomide, pomalidomide]",response of Rec-R cells,[5],only Mino cells are responsive
same,IKZF3 degradation half-life,[6],1.9 h
same,IC50,[7],0.329 µM
same,IKZF1 degradation half-life,[8],4.9 h
same,response of Jeko-1 cells,[9],only Mino cells are responsive
"C=CC(=O)Nc1cccc(Oc2nc(Nc3ccc(N4CCN(C)CC4)cc3)nc3ccoc23)c1 [Poseltinib, poseltinib]",IC50,[10],0.00121 µM
same,IC50,[11],2.9 µM
Cc1c(NC(=O)c2ccc(C(C)(C)C)cc2)cccc1-c1cn(C)c(=O)c(Nc2ccc(C(=O)N3CCN(CCCCCCNC(=O)CNc4cccc5c4C(=O)N(C4CCC(=O)NC4=O)C5=O)CC3)cc2)n1 (centres unmarked) [DD-03-171],BTK WB Dmax,[4]; Mino cells,99%
same,BTK degradation in Mino cells,[4],potently induces BTK degradation
same,BTK-nLuc Dmax,[12],96%
same,DC50,[12]; read-out: BTK-nLuc DC50,0.0259 µM
